Read-outs that look alike come from different tables or passages of the source.

The values that follow come from US7420001B2 (Wyeth, priority 2003, dated 2008).

One assay addresses T1, MMP-2 (Homo sapiens, UniProt P08253).
T1 construct: purchased Oncogene Research Products (Calbiochem) PF023
T1 sequence (P08253 110-660): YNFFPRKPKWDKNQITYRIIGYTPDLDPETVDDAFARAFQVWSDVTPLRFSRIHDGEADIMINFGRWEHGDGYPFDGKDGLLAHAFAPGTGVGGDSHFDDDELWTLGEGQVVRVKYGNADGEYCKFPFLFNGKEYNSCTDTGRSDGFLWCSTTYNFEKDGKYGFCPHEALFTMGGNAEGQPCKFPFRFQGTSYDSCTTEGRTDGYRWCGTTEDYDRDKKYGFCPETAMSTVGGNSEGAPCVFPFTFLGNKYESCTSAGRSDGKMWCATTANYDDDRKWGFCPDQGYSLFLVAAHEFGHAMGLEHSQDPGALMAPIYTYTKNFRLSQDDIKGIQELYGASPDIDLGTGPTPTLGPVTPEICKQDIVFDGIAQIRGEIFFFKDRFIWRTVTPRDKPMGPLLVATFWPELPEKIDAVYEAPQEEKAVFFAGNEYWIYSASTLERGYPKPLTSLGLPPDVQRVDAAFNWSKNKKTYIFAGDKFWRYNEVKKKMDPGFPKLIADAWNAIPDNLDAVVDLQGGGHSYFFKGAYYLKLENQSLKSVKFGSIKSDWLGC
In words: In-vitro fluorescence assay of MMP-2 activity. Format: biochemical.

Another assay concerns the target T2, MMP-1 (Homo sapiens, UniProt P03956).
T2 sequence (P03956 100-269 limits assumed): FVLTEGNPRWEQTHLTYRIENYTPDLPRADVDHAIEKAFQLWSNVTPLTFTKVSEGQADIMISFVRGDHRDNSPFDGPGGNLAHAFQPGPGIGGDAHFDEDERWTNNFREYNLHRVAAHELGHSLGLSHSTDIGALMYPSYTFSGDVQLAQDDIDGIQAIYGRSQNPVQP

The next assay deals with T3, MMP-14 (Homo sapiens, UniProt P50281).
T3 construct: 20 kDa; purchased Chemicon International, Inc. CC 1041
In words: In-vitro fluorescence assay of MMP-14 activity. Format: biochemical.

Another assay has as its target T4, Aggrecanase-1 (Homo sapiens, UniProt O75173).
T4 sequence (O75173 213-837): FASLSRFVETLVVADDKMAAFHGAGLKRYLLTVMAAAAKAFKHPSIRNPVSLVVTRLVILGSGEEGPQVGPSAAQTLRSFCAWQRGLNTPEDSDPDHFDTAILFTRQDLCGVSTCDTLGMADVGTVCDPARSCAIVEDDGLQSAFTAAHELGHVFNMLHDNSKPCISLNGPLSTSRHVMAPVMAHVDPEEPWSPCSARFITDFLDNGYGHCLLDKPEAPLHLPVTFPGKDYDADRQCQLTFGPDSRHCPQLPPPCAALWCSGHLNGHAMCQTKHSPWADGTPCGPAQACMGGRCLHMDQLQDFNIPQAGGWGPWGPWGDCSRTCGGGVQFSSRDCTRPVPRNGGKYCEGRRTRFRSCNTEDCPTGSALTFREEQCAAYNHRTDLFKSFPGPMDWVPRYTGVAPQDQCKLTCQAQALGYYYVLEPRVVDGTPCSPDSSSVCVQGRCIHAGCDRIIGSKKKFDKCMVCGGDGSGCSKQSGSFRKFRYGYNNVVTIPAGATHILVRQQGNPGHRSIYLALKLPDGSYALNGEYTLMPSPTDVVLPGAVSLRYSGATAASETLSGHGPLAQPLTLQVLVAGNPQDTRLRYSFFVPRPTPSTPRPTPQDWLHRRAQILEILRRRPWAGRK
As to the kind of experiment: Aggrecanase-1 FRET assay. The format is biochemical. Particulars: for IC50: rAgg1, WAAG-3R substrate, read-out: AGG-1 IC50. As to the method:
h. Aggrecanase-1 FRET Assay:
The following protocol was used: • Fluorimeter was started and temperature set to 30° C., about 30 min before setting up the assay. The following reagents are used: • Buffer: 50 mM HEPES, pH 7.5, 100 mM NaCl, 5 mM CaCl2, 0.1% CHAPS, 5% glycerol. • rAgg1: 5 μg/ml (final concentration in the assay): • Substrate: WAAG-3R (MWT=1645.8, Anaspec, stored at 4° C.). Make a stock at 2 mg/ml in 100% DMSO. Measure the absorbance at 354 nm (ε=18172 M^−1 cm^−1) to determine the exact concentration. Dilute to 62.5 μM in buffer. Store unused 100% DMSO stock at −80° C. Final concentration of substrate in the assay is 25 μM. […] Make up inhibitors at 10× starting concentration in 100% DMSO. Perform serial dilutions (in duplicate) across the nunc plate in 100% DMSO; • Dilution plates: Nunc, polypropylene low binding (Nalgene) • Assay plate: Fluoronunc (Nalgene) • Fluorimeter: GeminiXS (Molecular Devices).; • The assay is performed as follows: The plates are set up so that the final column (12) is used for controls. Total reaction volume is 100 μl. Each compound is assayed in duplicate, so 4 compounds are screened per plate. • 1) Add buffer to the entire 96-well plate (30 ρl/well). • 2) Dilute rAgg1 to 25 μg/ml buffer just prior to addition on the plate. Add 20 μl/well to all wells. Mix 6 times. • 3) Add 10 μl/well of 10× inhibitors from the working plate, except column 12. Mix 6 times. […] Mix 6 times.
The reaction is monitored for 30-40 min at 30° C. λex: 340 nm and λ em: 420 nm). The fluorescence is linear during this time and the slope of the line (Vmax/sec) represents the initial reaction rate, ν. The maximal rate of cleavage of substrate is determined in the absence of inhibitor. The percent inhibition of activity in the presence of inhibitor is calculated as follows:
[formula] The IC50 was obtained by fitting the initial rate, ν, or % inhibition at each concentration of inhibitor to the following equation in Excel. y=(a−d)/(1+C/IC50)^n)+d This model describes a sigmoidal curve with an adjustable baseline, […]. y is the % inhibition or initial rate of reaction, C is the concentration of inhibitor under test. a is the limiting response as C approaches zero. […] The sign of n is positive when the response increases with increasing dose and is negative when the response decreases with increasing dose (inhibition).

In another assay the target is T5, MMP-13 (Homo sapiens, UniProt P45452).
T5 construct: made in house
As to the kind of experiment: In-vitro fluorescence assay of MMP-13 activity. The format is biochemical.

The target in a further assay is T6, MMP-12 (Homo sapiens, UniProt P39900).
T6 construct: made in house
As to the kind of experiment: In vitro fluorescence assay of MMP-12 activity. The format is biochemical. Particulars: recombinant human MMP-12.

In a further assay the target is T7, MMP-9 (Homo sapiens, UniProt P14780).
T7 construct: Active, recombinant human MMP-9 (83 kDa) was purchased from Calbiochem (catalog #PF024); purchased Calbiochem PF024
As to the kind of experiment: MMP-9 activity assay. The format is biochemical. Particulars: recombinant human MMP-9.

Setting [1] is: recombinant human MMP-2, read-out: MMP-2 IC50.
[2] abbreviates: recombinant human catalytic domain of MMP-14.
Where [3] appears, read: recombinant human catalytic domain of MMP-13, read-out: MMP-13 IC50.

T6 sequence (P39900 106-280 limits assumed): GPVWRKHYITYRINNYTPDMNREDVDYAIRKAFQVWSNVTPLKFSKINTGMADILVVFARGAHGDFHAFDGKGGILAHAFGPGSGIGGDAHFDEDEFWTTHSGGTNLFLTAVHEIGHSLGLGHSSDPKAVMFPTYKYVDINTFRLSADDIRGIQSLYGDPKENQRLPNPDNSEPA
T7 sequence (P14780 107-707 limits assumed): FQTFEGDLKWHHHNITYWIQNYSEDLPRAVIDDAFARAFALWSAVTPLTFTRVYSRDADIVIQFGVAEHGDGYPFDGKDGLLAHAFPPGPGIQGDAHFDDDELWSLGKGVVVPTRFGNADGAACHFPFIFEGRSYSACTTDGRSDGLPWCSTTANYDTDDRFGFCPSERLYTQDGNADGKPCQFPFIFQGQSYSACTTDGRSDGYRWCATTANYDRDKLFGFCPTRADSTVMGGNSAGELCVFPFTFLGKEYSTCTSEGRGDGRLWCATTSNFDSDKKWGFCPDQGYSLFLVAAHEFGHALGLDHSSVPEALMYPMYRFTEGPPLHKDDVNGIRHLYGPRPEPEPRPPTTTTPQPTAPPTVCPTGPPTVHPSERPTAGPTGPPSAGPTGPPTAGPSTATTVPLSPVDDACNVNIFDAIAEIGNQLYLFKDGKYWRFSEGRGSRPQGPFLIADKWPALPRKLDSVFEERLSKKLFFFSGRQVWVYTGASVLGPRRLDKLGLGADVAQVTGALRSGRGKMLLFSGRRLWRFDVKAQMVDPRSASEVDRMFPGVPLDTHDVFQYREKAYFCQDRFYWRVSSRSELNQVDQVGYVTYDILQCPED
Method for MMP-13: A continuous assay was used in which the substrate is a synthetic peptide containing a fluorescent group (7-methoxycoumarin; Mca) which is quenched by energy transfer to a 2,4-dinitrophenyl group. […] The substrate used was Mca-PQGL-(3-[2,4-dinitrophenyl]-L-2,3-diaminopropionyl)-AR-OH (denoted as Wammp-5, custom synthesized by AnaSpec, Inc.). The assay buffer consisted of 50 mM Hepes (pH 7.4), 100 mM NaCl, 5 mM CaCl2, and 0.005% Brij-35. Each well of black polystyrene 96-well plates contained a 200 μL reaction mixture consisting of assay buffer, purified MMP (final concentration of 0.5 nM, prepared by diluting with the assay buffer), and varied concentrations of inhibitor (prepared by serially diluting a given inhibitor in DMSO in 96-well polypropylene plate). […] The enzymatic reactions were initiated by adding the substrate to a final concentration of 20 μM, and mixing 10 times with a pipette. The final DMSO concentration in the assay was 6.0%.
Plots of the inhibitor concentration vs. the percent inhibition were fit to the following equation: y=(a−d)/[1+(x/c)^b]+d, a general sigmoidal curve with Hill slope, a to d. x is the inhibitor concentration under test. y is the percent inhibition. a is the limiting response as x approaches zero. As x increases without bound, y tends toward its limit d. c is the inflection point (IC50) for the curve. That is, y is halfway between the lower and upper asymptotes when x=c. b is the slope factor or Hill coefficient.
Method for MMP-9: A continuous assay was used in which the substrate is a synthetic peptide containing a fluorescent group (7-methoxycoumarin; Mca) that is quenched by energy transfer to a 2,4-dinitrophenyl group. […] The concentration of the substrate stock was spectrophotometrically determined using the extinction coefficient at 410 nm of 7500 M^−1cm^−1. The assay buffer (pH 7.4) consisted of 50 mM Hepes, 100 mM NaCl, 5 mM CaCl2, and 0.005% Brij-35. Each well of black polystyrene 96-well plates contained a reaction consisting of assay buffer, purified MMP (final concentration of 1.0 nM, prepared by dilution with assay buffer), and varied concentrations of inhibitor (prepared by serial dilution in DMSO in 96-well polypropylene plates). The plates were then incubated at room temperature for 30 minutes. […] The final DMSO concentration in the assay was 10% and the final, total assay volume was 200 μl. […] Plots of the inhibitor concentration vs. the initial cleavage rate were fit to the following equation in order to determine IC50 values: y=Vmax*(1−(x^n/(K^n+x^n))), whereby x=inhibitor concentration, y=initial rate, Vmax=initial rate in the absence of inhibitor, n=slope factor, and K=IC50 for the inhibition curve.
Active, recombinant human MMP-9 (83 kDa) was purchased from Calbiochem (catalog #PF024).

With `CC(C)[C@@H](NS(=O)(=O)c1ccc(-c2ccc(NC(=O)c3ccco3)cc2)cc1)C(=O)O` [Example 172, (R)-2-{4′-[(Furan-2-carbonyl)-amino]-biphenyl-4-sulfonylamino}-3-methyl-butyric acid], the 50% inhibitory concentration (IC50) (usually the concentration at which inhibition is half-maximal) is 6.9 nM at MMP-2 (setting [1]); 18500 nM against MMP-1; 8920 nM at MMP-14 (setting [2]); 43000 nM on Aggrecanase-1; 29 nM on MMP-13 (setting [3]).

With `CC(C)[C@@H](NS(=O)(=O)c1ccc(-c2ccc(C[S+]([O-])c3cc4ccccc4o3)cc2)cc1)C(=O)O` (stereo partly drawn) [Example 165, D-2-[4′-(Benzofuran-2-sulfinylmethyl)-biphenyl-4-sulfonylamino]-3-methyl-butyric acid], the IC50 at MMP-2 (setting [1]) was 5.6 nM; on MMP-14 (setting [2]), 2120 nM; on MMP-12, 4.6 nM; on Aggrecanase-1, 20000 nM; on MMP-13 (setting [3]), 1.2 nM.

Consider `CC(C)[C@@H](NS(=O)(=O)c1ccc(-c2ccc(NC(=O)c3cccs3)cc2)cc1)C(=O)O` [Example 173, (R)-3-Methyl-2-{4′-[(thiophene-2-carbonyl)-amino]-biphenyl-4-sulfonylamino}-butyric acid], for which the IC50 at Aggrecanase-1 worked out at 25400 nM; at MMP-13 (setting [3]) it was 115 nM.

As for `CC(C)[C@@H](NS(=O)(=O)c1ccc(-c2ccc(CS(=O)(=O)c3cc4ccccc4o3)cc2)cc1)C(=O)O` [Example 164, D-2-[4′-(Benzofuran-2-sulfonylmethyl)-biphenyl-4-sulfonylamino]-3-methyl-butyric acid], the IC50 is 5.6 nM at MMP-2 (setting [1]); 500000 nM against MMP-1; 1430 nM at MMP-14 (setting [2]); 12700 nM at Aggrecanase-1; 1.1 nM at MMP-13 (setting [3]).

On to `CC(C)[C@@H](NS(=O)(=O)c1ccc(-c2ccc(OCc3nc4ccccc4s3)cc2)cc1)C(=O)O` [Example 137, D-2-[4′-(Benzothiazol-2-ylmethoxy)-biphenyl-4-sulfonylamino]-3-methyl-butyric acid], for which the IC50 stood at 23.9 nM at MMP-2 (setting [1]), 2500 nM at Aggrecanase-1 and 4.6 nM on MMP-13 (setting [3]). Also, the inhibition at […] at MMP-14 (read-out: MMP-14 % inhibition at a concentration, at 1.6 uM) stood at 49%.

Turning to `CC(C)[C@@H](NS(=O)(=O)c1ccc(-c2ccc(N(C)C(=O)c3cc4ccccc4o3)cc2)cc1)C(=O)O` [Example 75, D-2-{4′-[(Benzofuran-2-carbonyl)-methyl-amino]-biphenyl-4-sulfonylamino}-3-methyl-butyric acid], at Aggrecanase-1, the IC50 amounted to 42000 nM.

As for `COc1c(Br)ccc2oc(COc3ccc(-c4ccc(S(=O)(=O)N[C@H](C(=O)O)C(C)C)cc4)cc3)c(C)c12` [Example 148, N-({4′-[(5-Bromo-4-methoxy-3-methyl-1-benzofuran-2-yl)methoxy]-1,1′-biphenyl-4-yl}sulfonyl)-L-valine], the IC50 amounted to 136 nM on MMP-2; 400 nM on Aggrecanase-1; 1.4 nM at MMP-13 (MMP-13 IC50, recombinant human catalytic domain of MMP-13).

As to `CC(C)[C@@H](NS(=O)(=O)c1ccc(-c2ccc(OC(=O)c3ccoc3)cc2)cc1)C(=O)O` [Example 145, N-{[4′-(3-Furoyloxy)-1,1′-biphenyl-4-yl]sulfonyl}-D-valine], at Aggrecanase-1, the IC50 turned out to be 8600 nM.

`CC(C)[C@H](NS(=O)(=O)c1ccc(-c2ccc(NC(=O)c3cc4ccccc4o3)cc2)cc1)C(=O)O` [Example 2, L-2-{4′-[(Benzofuran-2-carbonyl)-amino]-biphenyl-4-sulfonylamino}-3-methyl-butyric acid]: the IC50 is 6.5 nM at MMP-2 (setting [1]), greater than 3500 nM against MMP-1, 1100 nM on MMP-9 and 2200 nM against MMP-14.

Consider `Cc1c(C(=O)Oc2ccc(-c3ccc(S(=O)(=O)N[C@@H](C(=O)O)C(C)C)cc3)cc2)oc2ccccc12` [Example 134, D-3-Methyl-benzofuran-2-carboxylic acid 4′-(1-carboxy-2-methyl-propylsulfamoyl)-biphenyl-4-yl ester], for which the IC50 on MMP-2 (setting [1]) amounted to 17 nM; at MMP-14 (setting [2]), 6250 nM; at Aggrecanase-1, 113 nM; on MMP-13 (setting [3]) it was 1.2 nM.

Turning to `CC(C)[C@@H](NS(=O)(=O)c1ccc(-c2ccc(OC(=O)c3ccco3)cc2)cc1)C(=O)O` [Example 144, N-{[4′-(2-Furoyloxy)-1,1′-biphenyl-4-yl]sulfonyl}-D-valine], at Aggrecanase-1, the IC50 was 11600 nM.

For `Cc1cc(-c2ccc(S(=O)(=O)N[C@@H](C(=O)O)C(C)C)cc2)cc(C)c1OC(=O)c1oc2ccccc2c1C` [Example 132, D-3-Methyl-benzofuran-2-carboxylic acid 4′-(1-carboxy-2-methyl-propylsulfamoyl)-3,5-dimethyl-biphenyl-4-yl ester], the IC50 was 346 nM on MMP-2 (setting [1]), 100000 nM at MMP-14 (setting [2]), 2200 nM on Aggrecanase-1 and 14 nM on MMP-13 (setting [3]).

For the compound `CC(C)C(NS(=O)(=O)c1ccc(-c2ccc(NS(=O)(=O)c3cccs3)cc2)cc1)C(=O)O` (stereo in doubt) [Example 171, (R)-3-Methyl-2-[4′-(thiophene-2-sulfonylamino)-biphenyl-4-sulfonylamino]-butyric acid], the inhibition at 150 µM at Aggrecanase-1 (read-out: AGG-1 % inhibition at a concentration) came to 60%. Also, the IC50 at MMP-13 (setting [3]) was 1090 nM.

As for `Cc1cc(-c2ccc(S(=O)(=O)N[C@@H](C(=O)O)C(C)C)cc2)cc(C)c1OC(=O)c1cc2ccccc2o1` [Example 133, D-Benzofuran-2-carboxylic acid 4′-(1-carboxy-2-methyl-propylsulfamoyl)-3,5-dimethyl-biphenyl-4-yl ester], the IC50 was determined as 64 nM at MMP-2 (setting [1]); 100000 nM against MMP-1; 12000 nM at MMP-14 (setting [2]); 800 nM on Aggrecanase-1; 5.2 nM on MMP-13 (setting [3]).
